Target: p45 v-abl tyrosine kinase
Experiment: Exogenous Substrate Kinase Assay: p45 v-abl kinase inhibition
Format: biochemical, Abelson murine leukemia virus
Details: (Val^5)-Angiotensin II phosphorylation; 40 ng abl-kinase; peptide 2 mM, ATP 50 μM; pH 8.0, 30° C.; triplicate determinations
From the text: Tyrosine kinase purification. The enzyme used in our test was the p45 v-abl tyrosine kinase which represents the catalytic domaine of the Abelson tyrosine kinase (isolated from the Abelson murine leukemia virus). The p45 v-abl kinase was produced and isolated as described by Wang et al. in J. Biol. Chem. 260, 64 (1985) and by Ferguson et al. in J. Biol. Chem. 260, 3652 (1985) and in Biochem. J. 257, 321 (1989).
Exogenous Substrate Kinase Assay. (Val^5)-Angiotensin II phosphorylation was performed by incubation with 40 ng of purified abl-kinase and (γ-^32 P)-ATP, in 50 μl of buffer containing Tris-HCl 25 mM, pH 8.0, MgCl2 10 mM and dithiothreitol 0.1 mM (kinase buffer). The reaction mixture was incubated for the indicated time at 30° C. and the reaction stopped by adding 50 μl of 5% trichloroacetic acid. After a brief incubation on ice, tubes were centrifuged. The supernatants were spotted on phosphocellulose paper squares (Whatman P-81) and washed extensively in acetic acid. The radioactivity bound to dried phosphocellulose squares was measured in a liquid scintillation counter. IC50 values were calculated from triplicate determinations of each experimental point. Each inhibitor was tested at concentrations ranging from […] in the presence of fixed concentrations of peptide (2 mM) and ATP (50 μM).

| SMILES | IC50 |
| --- | --- |
| O=C1NC(=O)c2ccccc2C1=Cc1ccnc2ccccc12 [4-(4'-quinolyl)methylenehomophthalimide, (E,Z) -4-(4'-quinolyl)-methylenehomophthalimide] | 15 µM |
| O=C1NC(=O)c2ccccc2C1=Cc1ccc(O)cc1 [(E,Z)-4-(4'-hydroxyphenyl)methylenehomophthalimide] | 5 µM |
| O=S1(=O)Nc2ccccc2C1=Cc1ccc(O)cc1 [(E,Z)-3-(4'-hydroxyphenyl)methylene-2,1-benzisothiazoline-2,2-dioxide] | 17 µM |
| O=S1(=O)Nc2ccccc2C1=Cc1c[nH]c2ccccc12 [(E,Z)-3-(3'-indolyl)methylene-2,1-benzisothiazoline-2,2-dioxide] | 113 µM |

From patent US5639884A, “Arylidene-heterocyclic derivatives and process for their preparation” (Farmitalia Carlo Erba S.r.l., priority 1991, dated 1997)
